Blank lines part the entries; values can stand above or below the compound they belong to.
Tests used:
TAG absorption = assay: Dog Oil Bolus Model (plasma triglyceride after olive oil); assay type: in vivo, dog (male beagles)
Protocol: Pharmacological Effects in a Dog Oil Bolus Model
Inhibiting MOGAT-2 found in the small intestine may be useful for treating hypertriglyceridemia caused by excessive fat intake. To assess the ability of the exemplified compounds to inhibit TAG absorption, twenty one male beagles (n=7 per treatment group) are enrolled for each study, each dog selected to have a body weight between 9-13 kg. House the dogs in cages with a standard light cycle (12 hours light and 12 hours dark); at room temperature: 72±8° F.; and at 30%-70% relative humidity. Fast the dogs for 16 hours prior to the start of the study, then dose the fasted dogs with vehicle (1% HEC, 0.25%, Tween 80, Antifoam) or one of the test compounds in that vehicle. Bleed the dogs one hour after dosing, (0.5 ml from the jugular vein) for a time 0 sample. Dose the dogs with olive oil (Sigma Catalog#: O-1514, 5 ml/kg) immediately after collection of the time 0 sample. Collect samples into an EDTA tube on ice at 1.5, 2, 3, 5, 7, and 9 hrs post compound/vehicle dosing. Centrifuge the samples at […] for 15 min and analyze (Roche Cat no. 1877771) for plasma total triglyceride using a Roche Hitachi 917. For plasma TAG 18.1—18.1—18.1 measurement, extract the samples and perform LC/MS/MS analysis similarly to that described above in MOGAT-2 Cell Assay using 10 μL of plasma/.
The analyte is the [M+NH4]+ ion of TAG 18:1 18:1 18:1, which has a mass of 902.8 m/z; the internal standard is D5 TAG 16:0 16:0 16:0, which has a mass of 829.8 m/z. Report the ratio of the 603.5 m/z daughter ion of 902.8 m/z (TAG 18:1 18:1 18:1) and the 556.5 m/z daughter ion of 829.8 m/z (D5 TAG 16:0 16:0 16:0 internal standard) changes in TAG 18:1 18:1 18:1 relative amount. Calculate the net plasma TAG AUC from total TAG AUC minus baseline TAG AUC using Graphpad Prism4: (Net AUCTAG=AUCTAG post oil bolus−AUCTAG at 0 hour). The percent inhibition of plasma triglyceride is calculated as follows: the (oil bolus group mean of net TAG AUC−oil bolus group mean of net TAG AUC with compound treatment/oil bolus group mean of net TAG AUC)*100. The final statistic analysis uses Dunnett's method of One way Anova for comparison with the control. All Net TAG AUC values are transformed to ranked averaged AUC for comparison to limit the variability within the studies. The ability of exemplified compounds of the present invention to inhibit MOGAT-2 activity and reduce TAG absorption in vivo can be further evaluated according to this assay.

human MOGAT-2 = human MOGAT-2 (Homo sapiens (Human), UniProt Q3SYC2); assay: MOGAT-2 Cell Assay (Caco-2 cells stably transfected with human MOGAT-2, HDG substrate, LC-MS); assay type: cell-based; settings: Caco-2 cells expressing human MOGAT-2; value (Std Dev., n)
human MOGAT-2, sequence (Q3SYC2 whole entry): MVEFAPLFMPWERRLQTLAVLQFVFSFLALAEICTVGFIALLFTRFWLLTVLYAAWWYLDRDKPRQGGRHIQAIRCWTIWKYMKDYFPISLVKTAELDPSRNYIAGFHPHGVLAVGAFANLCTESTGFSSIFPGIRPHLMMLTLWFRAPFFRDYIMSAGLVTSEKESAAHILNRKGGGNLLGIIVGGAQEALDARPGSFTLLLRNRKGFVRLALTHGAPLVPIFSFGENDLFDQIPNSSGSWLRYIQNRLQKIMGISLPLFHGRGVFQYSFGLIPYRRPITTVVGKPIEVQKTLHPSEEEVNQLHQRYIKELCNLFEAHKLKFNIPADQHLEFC
Protocol: Inhibitory Activity in MOGAT-2 Cell Assay
The inhibitory activity of compounds against human MOGAT-2 in a cell environment is evaluated in this assay. […] The substrate is delivered to cells using as a mixture with DOPC in the form of sonicated vesicles.
Seed the Caco2 cells onto 100 mm dishes to be 80% confluent after 24 hours in complete media (3/1 DMEM: F12+10% FBS+20 mM HEPES+gentamicin). Transfect the cells with hMOGAT-2 plasmid (MOGAT-2-pCDNA3.1-Hygro) using Lipofectamine 2000 (Invitrogen). After a 6 hour exposure to the transfection mixture, wash the cells three times in PBS and then add media. Incubate the cells for an additional 18 hours incubation, trypsinize the cells and serially dilute them into 100 mm dishes. Add complete media+400 μg/ml hygromycin and incubate until clones appear. Isolate and transfer the clones into 24 well dishes and grow to confluence. Prepare the RNAs from these clones using a Qiagen RNAeasy kit. Perform Taqman analysis using an ABI inventoried assay (HS00228262) on a 7900 Sequence Detection System (ABI).
Mix 2-O-hexadecylglycerol (“HDG”, Biosynth Chemistry & Biology, # H-1806, 562.7 μl of 20 mg/ml) and DOPC (14.3 ml of 20 mg/ml) in chloroform in a glass tube; dry first under N2 gas; and then under reduced pressure for additional 30 minutes. Add 20 ml of buffer (150 mM Tris-Cl pH 7.4, 250 mM sucrose, 1 mM EDTA) to the dried HDG/DOPC mixture while sonicating until the solution becomes clear. Plate the Caco2 cells into a poly-D-lysine coated 96-well plate (the “Cell Plate”) at 37° C., 5% CO2 overnight. Remove the growth media and pretreat the cells with the test compound in DMEMF12 (3:1) media (GIBCO 93-0152DK) containing 2% BSA (Sigma) for 30 minutes. Treat the cells with one test compound in 2% BSA DMEMF12 (3:1) media containing 40 μM of oleic acid and 800 μM of 8.9:91.9 (molar ratio) HDG/DOPC for 4 hours. Trypsinize the cells with 50 μl of trypsin solution and add 50 μl of PBS. Immediately freeze the cells on dry ice and store at −20° C. for LC-MS analysis. […]

[1] = 30 mg/kg PO, combined three studies
[2] = 75 mg/kg PO, combined two studies

Compound: C[C@@H](NS(C)(=O)=O)c1ccc(CN2CCO[C@@H](c3ccc(F)cc3)C2)cc1.O=C(O)/C=C\C(=O)O [Example 2, N-[(1R)-1-(4-{[(2S)-2-(4-Fluorophenyl)morpholin-4-yl]methyl}phenyl)ethyl]methanesulfonamide maleate]
inhibition of 18.1 TAG (plasma TAG 18:1 18:1 18:1) (TAG absorption; [1]): 45% | inhibition of TAG absorption (net plasma total TAG AUC) (TAG absorption; [1]): 43% | reduction in excursion of postprandial triglycerides (TAG absorption; 30 mg/kg and 75 mg/kg, combined studies, p<0.05): statistically significant (p<0.05) reduction | inhibition of 18.1 TAG (plasma TAG 18:1 18:1 18:1) (TAG absorption; [2]): 63% | inhibition of TAG absorption (net plasma total TAG AUC) (TAG absorption; [2]): 64%

IC50 (human MOGAT-2): 98 nM
Compound: C[C@@H](NS(C)(=O)=O)c1ccc(CN2CCOC(c3cccc(C(F)(F)F)c3)C2)cc1 (single isomer, unassigned; isomer 2) [Example 11]

IC50 (human MOGAT-2): 16 nM
Compound: CS(=O)(=O)N[C@@H](c1ccc(CN2CCOC(c3ccccc3Cl)C2)cc1)C(F)(F)F (single isomer, unassigned; isomer 2) [Example 5]

IC50 (human MOGAT-2): 40 nM
Compound: CS(=O)(=O)N[C@@H](c1ccc(CN2CCOC(c3ccc(F)cc3)C2)cc1)C(F)(F)F (single isomer, unassigned; isomer 1) [Example 14]
